In patent US5710151A, “Method of treating urinary bladder dysfunctions” (priority 1996, dated 1998):
Structures can show the parent of a compound that is named as a salt.

System: vesico-anal reflex
Experiment: acetic acid-induced vesico-anal reflex
Assay type: in vivo, rat
Settings: for duration of the increase in vesico-anal reflex activity when administered alone / vesico-anal reflex activity when administered alone: atropine 30 μg/kg-1 mg/kg, oxybutynin 1-3 mg/kg
Description: The model of visceral nociception that was used in the testing of the compounds according to the method of this invention is the acetic acid-induced vesico-anal reflex. This model utilizes infusion of a dilute acetic acid solution into the urinary bladder as a nociceptive stimulus and records increases in electromyographic (EMG) activity from the anal sphincter as the primary measured response. Anal sphincter EMG activity is composed of 2 components, 1) a small, long duration action potential (ca. 50 msec) that is sensitive to muscarinic antagonists and 2) a larger, short duration action potential (ca. 2 msec) that is sensitive to neuromuscular blocking agents (i.e. mediated by nicotinic receptors). […] It is the striated anal sphincter muscle activity that 1) is associated with bladder activity, 2) is increased by acetic acid infusion into the bladder, and 3) represents the vesico-anal reflex.
In the acetic acid-induced vesico-anal reflex model, bladders of urethane-anesthetized rats were cannulated through the dome for continuous-infusion cystometrogram recordings. EMG electrodes were inserted into the anus and the peri-urethral musculature for recording anal and urethral sphincteric activity, respectively.
Female Sprague-Dawley rats (200-300 g) were anesthetized with 1.4 g/kg urethane (0.7 g administered i.p. and 0.7 g administered s.c.), which was supplemented with 1% isoflurane during surgery. The urinary bladder was exposed through an abdominal incision and cannulated with PE60 tubing attached to a 22 gauge needle that was inserted through the dome of the bladder. A purse-string suture (5-0 silk) through the bladder held the needle in place. The cannula was connected to an infusion pump (Harvard Apparatus, Natick Mass.) and a pressure transducer (Statham Gould, Cleveland, Ohio) through a 3 way stopcock to allow bladder filling and pressure measurement, respectively. The abdominal incision was covered with plastic wrap. A small incision was made in the perineum to allow placement of EMG electrodes into the periurethral musculature. EMG electrodes were also placed into the muscular tissue of the anus. EMG electrodes were connected to preamplifiers (Grass P511, Quincey, Mass.) with low and high pass filters set at 10 and 3000 HZ. […] A catheter inserted into the carotid artery was connected to a pressure transducer (Statham Gould, Cleveland, Ohio) to record arterial pressure, which was used to trigger a heart rate meter (Biotach, Gould, Cleveland, Ohio). A catheter was inserted into the trachea to allow for artificial respiration and monitoring of expired CO2 (Sensor Medics. Anaheim, Calif.).
After establishing control levels of anal and urethral activity, compounds were administered intravenously. Oxotremorine sesquifumarate (Sigma Chemicals, St. Louis, Mo.), atropine sulfate (RBI, Natick, Mo.), (-) scopolamine methyl bromide (RBI), physostigmine free base (Sigma Chemicals), neostigmine bromide (Sigma) and the test compounds were all dissolved in physiological saline.

[1] = 0.5% acetic acid infused into the bladder or urethra

O=C1CCCN1CC#CCN1CCCC1 [Oxotremorine, Oxotremorine sesquifumarate]
inhibition of vesico-anal reflex activity (in words) (oxotremorine 1-30 μg/kg iv, test compounds 0.01-1.0 mg/kg iv): dose-dependent inhibition of vesico-anal reflex activity
inhibition of vesico-anal reflex activity (to % of control) (oxotremorine 1-30 μg/kg iv, urethane-anesthetized rats): 10 % of control

C[N+]1(C)[C@@H]2C[C@@H](OC(=O)[C@H](CO)c3ccccc3)C[C@H]1[C@@H]1O[C@@H]12 [Scopolamine methyl bromide, (-) scopolamine methyl bromide]
blocking of the cholinergic agonist-mediated inhibition of the vesico-anal reflex (scopolamine methyl bromide 1-30 ug/kg, peripherally-restricted): ineffective

CC(=O)O [acetic acid]
anal sphincter activity [1]: pronounced increases in anal sphincter activity
bladder contractile activity and urethral sphincter activity [1]: modest increases in bladder contractile activity and urethral sphincter activity
duration of acetic acid-induced increase in vesico-anal reflex activity (in 95% of the animals): over 2 hours

CN1C2CCC1CC(OC(=O)C(CO)c1ccccc1)C2 (stereo not drawn) [atropine, atropine sulfate]
duration of the increase in vesico-anal reflex activity when administered alone: 15 min
vesico-anal reflex activity when administered alone: robust, but transient (15 min.), increases in vesico-anal reflex activity
reversal of the cholinergic agonist-induced inhibition of vesico-anal reflex activity (atropine 0.3-1 mg/kg): reversed

CCN(CC)CC#CCOC(=O)C(O)(c1ccccc1)C1CCCCC1 (stereo not drawn) [oxybutynin]
duration of the increase in vesico-anal reflex activity when administered alone: 15 min
vesico-anal reflex activity when administered alone: robust, but transient (15 min.), increases in vesico-anal reflex activity

CNC(=O)Oc1ccc2c(c1)[C@]1(C)CCN(C)[C@@H]1N2C [physostigmine, physostigmine free base]
suppression of the VA reflex by cholinesterase inhibitor (centrally active (physostigmine) vs peripherally-restricted (neostigmine)): suppressed the VA reflex in a dose-dependent, atropine-sensitive manner
